In patent publication US20120225909A1, “INDAZOLE ANALOG” (priority 2009, published 2012):

What was measured:
Type in all cases: cell-based
[1] = biological target: T1, human β3-adrenergic receptor (Homo sapiens, UniProt P13945); test: Test Case 1-B: human β3-adrenergic receptor agonist activity (cAMP-Screen, 96-well); conditions: for Emax: 0.5 h, read-out: β3 receptor I.A.; for EC50 / β3 receptor I.A.: Test Case 1-B; for EC50: CHO cells, cAMP; for β3 receptor I.A.: maximum response of isoproterenol = 100%
T1 construct: A full-length human β3 gene is obtained from a human genomic library (made by Clontech) using this as the probe; expressed in transfected cells; host or cells: CHO (Chinese hamster ovary) cells, pcDNA3
How it was run: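 CHO cells stably transfected with full-length human β3 gene, serum-starved 15 min, then exposed to serially diluted compound in Ham's F-12 with 100 mmol/L HEPES and 1 mmol/L IBMX (diluent concentrations) for 30 min. Cells lysed 30 min at 37 °C; cAMP quantified by cAMP-Screen immunoassay.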

[2] = biological target: T2, human β1-adrenergic receptor (Homo sapiens, UniProt P08588); test: Test Case 2-C: human β1-adrenergic receptor agonist activity (Cerep cellular functional GPCR, beta 1); conditions: concentration 10 μM, isoproterenol = 100%
T2 construct: expressed in transfected cells; host or cells: CHO (Chinese hamster ovary) cells, pcDNA3
Excerpt: Measurement of Human β1-Adrenergic Receptor Agonist Activity

[3] = biological target: T3, human β2-adrenergic receptor (Homo sapiens, UniProt P07550); test: Test Case 3-C: human β2-adrenergic receptor agonist activity (Cerep cellular functional GPCR, beta 2); conditions: concentration 10 μM, isoproterenol = 100%
T3 construct: expressed in transfected cells; host or cells: CHO (Chinese hamster ovary) cells, pcDNA3
Excerpt: Measurement of Human β2-Adrenergic Receptor Agonist Activity

[4] = biological target: T4, human α1A-adrenergic receptor (Homo sapiens, UniProt P35348); test: Test Case 4-B: human α1A-adrenergic receptor agonist activity (Cerep cellular functional GPCR, alpha 1A); design: expressed in transfected cells; conditions: concentration 10 μM; for α1 receptor % of Control Agonist Response, Control; Epinephrine: epinephrine = 100%; for α1 receptor % of Control Agonist Response, Control; Norepinephrine: norepinephrine = 100%
T4 sequence (P35348 1-466): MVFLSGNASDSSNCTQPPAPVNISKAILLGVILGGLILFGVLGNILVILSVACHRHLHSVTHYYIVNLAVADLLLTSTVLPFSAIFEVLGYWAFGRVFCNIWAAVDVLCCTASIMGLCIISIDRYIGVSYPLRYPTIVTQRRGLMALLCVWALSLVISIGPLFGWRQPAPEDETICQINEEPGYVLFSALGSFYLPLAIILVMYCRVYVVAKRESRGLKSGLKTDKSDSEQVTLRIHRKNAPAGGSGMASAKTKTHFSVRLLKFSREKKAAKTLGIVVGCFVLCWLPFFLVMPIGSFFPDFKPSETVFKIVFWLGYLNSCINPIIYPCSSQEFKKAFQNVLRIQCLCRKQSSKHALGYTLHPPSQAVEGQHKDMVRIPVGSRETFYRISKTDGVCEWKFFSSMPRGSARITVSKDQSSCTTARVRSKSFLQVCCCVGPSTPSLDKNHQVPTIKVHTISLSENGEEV
Excerpt: Measurement of Human α1A-Adrenergic Receptor Agonist Activity
The human α1A-adrenergic receptor agonist activity] can be measured by […] Functional GPCR·Gs, alpha 1A (Ref. 722-36a) listed on p. 52 of the Cerep 2008 CATALOG IN VITRO PHARMACOLOGY & ADME-TOX.

[5] = biological target: T4, human α1A-adrenergic receptor; test: Test Case 4-A: human α1A-adrenergic receptor agonist activity (HEK293, Ca flux, Fura-2); design: expressed in transfected cells; host or cells: HEK293 cells, pcDNA3.1; conditions: for Emax: HEK293, read-out: α1A receptor I.A.
How it was run: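 Fura-2AM-loaded HEK293 cells transfected with human α1A were preincubated for 180 s. Compound (sample plate 10^−5 to 10^−12 M) was added after ~30 s of 340/380 nm excitation ratio reading (500 nm emission, 2-s intervals), followed by 270 s more reading. Ca flux is the peak height: maximum ratio after addition minus the pre-addition ratio.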

T1 sequence (P13945 whole entry): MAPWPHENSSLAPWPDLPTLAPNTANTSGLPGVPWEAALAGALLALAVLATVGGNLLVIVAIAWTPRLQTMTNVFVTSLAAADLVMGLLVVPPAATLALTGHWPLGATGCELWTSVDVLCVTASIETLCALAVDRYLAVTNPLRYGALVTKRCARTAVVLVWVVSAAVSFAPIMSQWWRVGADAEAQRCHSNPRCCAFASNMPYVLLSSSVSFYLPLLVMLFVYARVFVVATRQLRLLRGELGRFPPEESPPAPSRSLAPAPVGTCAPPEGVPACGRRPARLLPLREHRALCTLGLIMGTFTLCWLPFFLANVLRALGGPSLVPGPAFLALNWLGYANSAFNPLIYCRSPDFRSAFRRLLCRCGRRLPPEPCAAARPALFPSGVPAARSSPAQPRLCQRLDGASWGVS
T2 sequence (P08588 whole entry): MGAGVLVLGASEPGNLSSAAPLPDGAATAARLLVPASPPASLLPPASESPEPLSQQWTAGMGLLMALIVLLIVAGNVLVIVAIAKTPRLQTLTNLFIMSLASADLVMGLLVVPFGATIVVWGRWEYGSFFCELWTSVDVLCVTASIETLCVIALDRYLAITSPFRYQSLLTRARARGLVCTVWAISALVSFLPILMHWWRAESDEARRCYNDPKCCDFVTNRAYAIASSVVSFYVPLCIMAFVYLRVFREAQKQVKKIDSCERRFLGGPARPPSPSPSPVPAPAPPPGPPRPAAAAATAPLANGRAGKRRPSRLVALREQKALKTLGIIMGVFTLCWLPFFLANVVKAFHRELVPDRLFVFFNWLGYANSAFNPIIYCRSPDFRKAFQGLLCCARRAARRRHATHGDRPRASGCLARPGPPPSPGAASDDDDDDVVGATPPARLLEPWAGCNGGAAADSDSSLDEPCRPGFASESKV

| Molecule | Emax [1] [%] | β1 receptor % of Control Agonist Response [2] [%] | β2 receptor % of Control Agonist Response [3] [%] | α1 receptor % of Control Agonist Response, Control; Epinephrine [4] [%] | α1 receptor % of Control Agonist Response, Control; Norepinephrine [4] [%] | EC50 [1] [µM] | Emax [5] [%] | β2 receptor % of Control Agonist Response ([3]; 10 µM) [%] | α1 receptor % of Control Agonist Response, Control; Epinephrine ([4]; 10 µM) [%] | α1 receptor % of Control Agonist Response, Control; Norepinephrine ([4]; 10 µM) [%] | β3 receptor I.A. [1] [%] | α1A receptor I.A. ([5]; Test Case 4-A, maximum response of norepinephrine = 100%, Table 4) [%] |
| --- | --- | --- | --- | --- | --- | --- | --- | --- | --- | --- | --- | --- |
| Cc1n[nH]c2cc(OCCNC[C@H](O)c3cccc(NS(=O)(=O)c4c(F)cccc4F)c3)ccc12 [ex71, (R)-2,6-difluoro-N-(3-(1-hydroxy-2-(2-(3-methylindazol-6-yloxy)ethylamino)ethyl)phenyl) benzenesulfonamide] |  | 32 | 1.5 | 4.3 | 3.7 | 0.152 |  |  |  |  | 96 | 2 |
| Cc1n[nH]c2cc(OCCNC[C@H](O)c3cccc(NS(=O)(=O)c4cccnc4F)c3)ccc12 [ex86] |  | 8.8 | −0.7 | −0.4 | −0.3 | 0.401 |  |  |  |  | 80 |  |
| O=S(=O)(Nc1cccc([C@@H](O)CNCCOc2ccc3c(C(F)(F)F)n[nH]c3c2)c1)c1cn[nH]c1 [ex198, (R)-N-(3-(1-hydroxy-2-(2-(3-(trifluoromethyl)-indazol-6-yloxy)ethylamino)ethyl)phenyl)-pyrazole-4-sulfonamide] |  | 3.5 | −0.5 | 19 | 17 |  |  |  |  |  |  |  |
| (R)-N-(3-(2-(2-(3- ethylindazol-6- yloxy)ethylamino)-1- hydroxyethyl)phenyl)- ? -methyli ? zole-4- sulfonamide [ex134] |  | 7.0 | 2.0 | 7.0 | 6.0 |  |  |  |  |  |  |  |
| O=S(=O)(Nc1cccc([C@@H](O)CNCCOc2ccc3c(C(F)(F)F)n[nH]c3c2)c1)c1cccnc1 [ex186, (R)-N-(3-(1-hydroxy-2-(2-(3-(trifluoromethyl)-indazol-6-yloxy)ethylamino)ethyl)phenyl)pyridine-3-sulfonamide] |  | 7.2 | 1.9 | 0.6 | 0.5 |  |  |  |  |  |  |  |
| O=S(=O)(Nc1cccc([C@@H](O)CNCCOc2ccc3c(OC(F)F)n[nH]c3c2)c1)c1ccccc1F [ex107, (R)-N-(3-(2-(2-(3-(difluoromethoxy)-indazol-6-yloxy)ethylamino)-1-hydroxyethyl)phenyl)-2-fluorobenzene-sulfonamide] | 75 | 8.7 | −0.6 | 17 | 14 | 0.101 | 1 |  |  |  |  |  |

Now from value to molecule, other results behind:

| Emax [1] [%] | β1 receptor % of Control Agonist Response [2] [%] | β2 receptor % of Control Agonist Response [3] [%] | α1 receptor % of Control Agonist Response, Control; Epinephrine [4] [%] | α1 receptor % of Control Agonist Response, Control; Norepinephrine [4] [%] | EC50 [1] [µM] | Emax [5] [%] | β2 receptor % of Control Agonist Response ([3]; 10 µM) [%] | α1 receptor % of Control Agonist Response, Control; Epinephrine ([4]; 10 µM) [%] | α1 receptor % of Control Agonist Response, Control; Norepinephrine ([4]; 10 µM) [%] | Molecule | β3 receptor I.A. [1] [%] | α1A receptor I.A. ([5]; Test Case 4-A, maximum response of norepinephrine = 100%, Table 4) [%] |
| --- | --- | --- | --- | --- | --- | --- | --- | --- | --- | --- | --- | --- |
| 41 | 6.1 | 1.2 | 5.6 | 4.8 |  |  |  |  |  | COc1n[nH]c2cc(OCCNC[C@H](O)c3cccc(NS(=O)(=O)c4cccnc4F)c3)ccc12 [ex24, (R)-2-fluoro-N-(3-(1-hydroxy-2-(2-(3-methoxyindazol-6-yloxy)ethylamino)ethyl)phenyl)pyridine-3-sulfonamide] |  |  |
| 92 | 19 | 1.8 | 6.8 | 5.9 | 0.0083 | 1 |  |  |  | Cc1n[nH]c2cc(OCCNC[C@H](O)c3cccc(NS(=O)(=O)c4cc(F)ccc4F)c3)ccc12 [ex72, (R)-2, ? -difluoro-N-(3-(1-hydroxy-2-(2-(3-methylindazol-6-yloxy)ethylamino)ethyl)phenyl) benzenesulfonamide] |  |  |
| 90 | 17 | 1.6 | 7.8 | 6.7 | 0.062 | 0 |  |  |  | O=S(=O)(Nc1cccc([C@@H](O)CNCCOc2ccc3c(Cl)n[nH]c3c2)c1)c1ccccc1F [ex158, (R)-N-(3-(2-(2-(3-chloroindazol-6-yloxy)ethylamino)-1-hydroxyethyl)phenyl)-2-fluorobenzene-sulfonamide] |  |  |
|  | 12 |  |  |  |  |  | 3.5 | 3.9 | 3.4 | O=S(=O)(Nc1cccc([C@@H](O)CNCCOc2ccc3c(Cl)n[nH]c3c2)c1)c1cccnc1 [ex156, (R)-N-(3-(2-(2-(3-chloroindazol-6-yloxy)ethylamino)-1-hydroxyethyl)phenyl)pyridine-3-sulfonamide] |  |  |
|  | 15 | 3.7 | 25 | 21 |  |  |  |  |  | Cc1n[nH]c2cc(OCCNC[C@H](O)c3cccc(NS(=O)(=O)c4ccc(Cl)c(N)c4)c3)ccc12 [ex7, (R)-3-amino-4-chloro-N-(3-(1-hydroxy-2-(2-(3-methylindazol-6-yloxy)ethylamino)ethyl)phenyl)benzenesulfonamide] |  |  |
|  | 12 |  |  |  |  |  | 2.2 | 0 | 0 | O=S(=O)(Nc1cccc([C@@H](O)CNCCOc2ccc3c(Cl)n[nH]c3c2)c1)c1cccnc1 [ex155, (R)-N-(3-(2-(2-(3-chloroindazol-6-yloxy)ethylamino)-1-hydroxyethyl)phenyl)pyridine-3-sulfonamide] |  |  |
